Results taken from patent US10266526B2, “Substituted 1,2,3-triazoles as SMYD inhibitors for treating cancer” (EPIZYME, INC., priority 2014, dated 2019).
Read-outs that look alike come from different tables or passages of the source.

Biological target: SMYD3 (Homo sapiens (Human), UniProt Q9H7B4)
Assay: SMYD3 biochemical assay (SMYD3 enzyme assay on MEKK2 protein substrate, 3H-SAM scintillation proximity assay)
Excerpt: S-adenosylmethionine (SAM), S-adenosylhomocysteine (SAH), Tris, Tween20, dimethylsulfoxide (DMSO), bovine skin gelatin (BSG), and Tris(2-carboxyethyl)phosphine hydrochloride solution (TCEP) were purchased from Sigma-Aldrich at the highest level of purity possible. ^3H-SAM was purchase from American Radiolabeled Chemicals with a specific activity of 80 Ci/mmol. 384-well opaque white OptiPlates and SPA beads (Perkin Elmer, catalog # RPNQ0013) were purchased from PerkinElmer.
N-terminally GST-tagged MEKK2 (MAP3K2) protein corresponding to reference sequence AAF63496.3 was purchased from Life Technologies (catalog # PV4010). This protein was expressed in High Five insect cells and purified to >85% purity. Protein identity was confirmed by MS/MS analysis after proteolytic digestion. The protein sequence used was:
Full-length human SMYD3 isoform 1 (BAB86333) was inserted into a modified pET21b plasmid containing a His6 tag and TEV and SUMO cleavage sites.
E. coli (BL21 codonplus RIL strain, Stratagene) were transformed with plasmid pEPZ553 by mixing competent cells and plasmid DNA and incubating on ice for 30 minutes followed by heat shock at 42° C. for 1 minute and cooling on ice for 2 minutes. Transformed cells were grown and selected on LB agar with 100 μg/mL ampicillin and 17 μg/mL chloramphenicol at 37° C. overnight. A single clone was used to inoculate 200 mL of LB medium with 100 μg/mL ampicillin and 17 μg/mL chloramphenicol and incubated at 37° C. on an orbital shaker at 180 rpm. Once in log growth, the culture was diluted 1:100 into 2 L of LB medium and grown until OD600 was about 0.3 after which the culture was incubated at 15° C. and 160 rpm. Once OD600 reached about 0.4, IPTG was added to a final concentration of 0.1 mM and the cells were grown overnight at 15° C. and 160 rpm. Cells were harvested by centrifugation at 8000 rpm, for 4 minutes at 4° C. and stored at −80° C. for purification.
The column was washed with Buffer B (Buffer A plus 20 mM imidazole) and His-tagged SMYD3 was eluted with Buffer C (Buffer A plus 300 mM imidazole). The His tag, TEV and SUMO cleavage sites were removed generating native SMYD3 by addition of ULP1 protein at a ratio of 1:200 (ULP1:SMYD3). Imidazole was removed by dialysis overnight in Buffer A. The dialyzed solution was applied to a second Nickel column and the native SMYD3 protein was collected from the column flow-through. The flow-through was dialyzed in Buffer D (25 mM Tris, 5% glycerol, 5 mM β-mercaptoethanol, 50 mM NaCl, pH7.8) and ULP1 was removed using a Q sepharose fast flow column.
General Procedure for SMYD3 Enzyme Assays on MEKK2 Protein Substrate
The assays were all performed in a buffer consisting of 25 mM Tris-Cl pH 8.0, 1 mM TCEP, 0.005% BSG, and 0.005% Tween 20, prepared on the day of use. […] DMSO (1 ul) was added to Columns 11, 12, 23, 24, rows A-H for the maximum signal control and 1 ul of SAH, a known product and inhibitor of SMYD3, was added to columns 11, 12, 23, 24, rows I-P for the minimum signal control. A cocktail (40 ul) containing the SMYD3 enzyme was added by Multidrop Combi (Thermo-Fisher). The compounds were allowed to incubate with SMYD3 for 30 min at room temperature, then a cocktail (10 ul) containing SAM and MEKK2 was added to initiate the reaction (final volume=51 ul). […] The assays were stopped by the addition of non-radiolabeled SAM (10 ul) to a final concentration of 100 uM, which dilutes the ^3H-SAM to a level where its incorporation into MEKK2 is no longer detectable. Radiolabeled MEKK2 was detected using a scintillation proximity assay (SPA). 10 uL of a 10 mg/mL solution of SPA beads in 0.5 M citric acid was added and the plates centrifuged at 600 rpm for 1 min to precipitate the radiolabeled MEKK2 onto the SPA beads.

[1] = read-out: SMYD3 Biochem IC50 (μM)*

Sequence of SMYD3 (Q9H7B4 whole entry): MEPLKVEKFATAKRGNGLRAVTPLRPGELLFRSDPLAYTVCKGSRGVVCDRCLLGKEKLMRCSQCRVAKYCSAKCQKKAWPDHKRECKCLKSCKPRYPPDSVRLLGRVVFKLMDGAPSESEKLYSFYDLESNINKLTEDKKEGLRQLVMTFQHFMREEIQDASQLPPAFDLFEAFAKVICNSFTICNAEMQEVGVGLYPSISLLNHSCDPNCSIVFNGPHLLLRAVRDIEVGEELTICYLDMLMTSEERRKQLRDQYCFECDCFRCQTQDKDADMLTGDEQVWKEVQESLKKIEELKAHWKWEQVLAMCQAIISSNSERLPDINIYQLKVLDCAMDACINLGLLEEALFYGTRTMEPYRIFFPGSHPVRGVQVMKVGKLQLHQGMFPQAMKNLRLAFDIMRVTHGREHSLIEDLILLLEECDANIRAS

IC50 (read-out: SMYD3 Biochem IC50) [µM]	SMILES	also measured
> 100	CC(NC(=O)c1ccc2nonc2c1)C1CCN(C(=O)[C@H](C)N)CC1 (stereo partly drawn) [compound 237, N-(1-(1-(L-alanyl)piperidin-4-yl)ethyl)benzo[c][1,2,5]oxadiazole-5-carboxamide]	
> 100	Cc1ccc(C(=O)NC(C)C2CCN(C(=O)[C@H](C)N)CC2)cn1 (stereo partly drawn) [compound 257, N-(1-(1-(L-alanyl)piperidin-4-yl)ethyl)-6-methylnicotinamide]	
> 100	Cc1nc2ccccc2c(C(=O)N[C@H]2CC[C@H](N)CC2)c1N [compound 458, 3-amino-N-((1r,4r)-4-aminocyclohexyl)-2-methylquinoline-4-carboxamide]	
> 100	Cc1n[nH]c(C)c1C(=O)N[C@H]1CC[C@H](N)CC1 [compound 182, N-((1r,4r)-4-aminocyclohexyl)-3,5-dimethyl-1H-pyrazole-4-carboxamide]	
36.4	Cc1cncc(C(=O)N[C@H]2CC[C@H](NC(=O)CCN)CC2)c1 [compound 344, N-((1r,4r)-4-(3-aminopropanamido)cyclohexyl)-5-methylnicotinamide]	
> 100	NCCC(=O)N[C@H]1CC[C@H](NC(=O)c2ccc(-n3cnnc3)cc2)CC1 [compound 329, N-((1r,4r)-4-(3-aminopropanamido)cyclohexyl)-4-(4H-1,2,4-triazol-4-yl)benzamide]	
> 100	Cn1ccnc1C(=O)N[C@H]1CC[C@H](N)CC1 [compound 337, N-((1r,4r)-4-aminocyclohexyl)-1-methyl-1H-imidazole-2-carboxamide]	
> 100	CC(NC(=O)c1cc(C(C)(C)C)nn1C)C1CCN(C(=O)[C@H](C)N)CC1 (stereo partly drawn) [compound 260, N-(1-(1-(L-alanyl)piperidin-4-yl)ethyl)-3-(tert-butyl)-1-methyl-1H-pyrazole-5-carboxamide]	
> 100	CC(NC(=O)c1ccc2c(c1)no[n+]2[O-])C1CCN(C(=O)[C@H](C)N)CC1 (stereo partly drawn) [compound 236, 5-((1-(1-(L-alanyl)piperidin-4-yl)ethyl)carbamoyl)benzo[c][1,2,5]oxadiazole 1-oxide]	
	Cc1nc(-c2ccc(C(=O)N[C@H]3CC[C@H](NC(=O)CCN)CC3)cc2)no1 [compound 136, N-((1r,4r)-4-(3-aminopropanamido)cyclohexyl)-4-(5-methyl-1,2,4-oxadiazol-3-yl)benzamide]	IC50 [1]: > 100 µM
50.7	Cc1cncc(C(=O)N[C@H]2CC[C@H](N)CC2)c1 [compound 345, N-((1r,4r)-4-aminocyclohexyl)-5-methylnicotinamide]	
> 100	N[C@H]1CC[C@H](NC(=O)Cc2ccc(F)cc2)CC1 [compound 208, N-((1r,4r)-4-aminocyclohexyl)-2-(4-fluorophenyl)acetamide]	
0.61	NCCC(=O)N[C@H]1CC[C@H](NC(=O)c2ccc3c(c2)CC(=O)N3)CC1 [compound 471, N-((1r,4r)-4-(3-aminopropanamido)cyclohexyl)-2-oxoindoline-5-carboxamide]	
	CC(N)C(=O)N[C@H]1CC[C@H](NC(=O)c2ccc3c(c2)CC(=O)N3)CC1 (stereo partly drawn) [compound 175, N-((1r,4r)-4-(2-aminopropanamido)cyclohexyl)-2-oxoindoline-5-carboxamide]	IC50 [1]: 0.42 µM
	Cc1n[nH]c(C)c1C(=O)N[C@H]1CC[C@H](NC(=O)CCN)CC1 [compound 181, N-((1r,4r)-4-(3-aminopropanamido)cyclohexyl)-3,5-dimethyl-1H-pyrazole-4-carboxamide]	IC50 [1]: > 100 µM
> 50	NCCC(=O)N[C@H]1CC[C@H](NC(=O)c2ncccc2O)CC1 [compound 512, N-((1r,4r)-4-(3-aminopropanamido)cyclohexyl)-3-hydroxypicolinamide]	
	N[C@H]1CC[C@H](NC(=O)c2nc(I)n[nH]2)CC1 [compound 548, N-((1r,4r)-4-aminocyclohexyl)-3-iodo-1H-1,2,4-triazole-5-carboxamide]	IC50 (Table 1A, average of n = 1 to n = 50, read-out: SMYD3 Biochem IC50): > 50 µM

IC50 (read-out: SMYD3 Biochem IC50) [µM]	SMILES	also measured
> 100	COc1cccc(C(=O)N[C@H]2CC[C@H](N)CC2)n1 [compound 354, N-((1r,4r)-4-aminocyclohexyl)-6-methoxypicolinamide]	
> 100	COc1cc(C(=O)NC(C)C2CCN(C(=O)[C@H](C)N)CC2)c2ccccc2n1 (stereo partly drawn) [compound 221, N-(1-(1-(L-alanyl)piperidin-4-yl)ethyl)-2-methoxyquinoline-4-carboxamide]	
	O=C1Cc2cc(C(=O)NC(c3ccccc3)C3CCNCC3)ccc2N1 (stereo not drawn) [compound 44, 2-oxo-N-(phenyl(piperidin-4-yl)methyl)indoline-5-carboxamide]	IC50 [1]: 14.1 µM
> 100	Cc1ccc(C(=O)N[C@H]2CC[C@H](NC(=O)CCN)CC2)cn1 [compound 382, N-((1r,4r)-4-(3-aminopropanamido)cyclohexyl)-6-methylnicotinamide]	
> 100	NCCC(=O)N[C@H]1CC[C@H](NC(=O)c2cn3ncccc3n2)CC1 [compound 446, N-((1r,4r)-4-(3-aminopropanamido)cyclohexyl)imidazo[1,2-b]pyridazine-2-carboxamide]	
	CCc1cccc(C(=O)N[C@H]2CC[C@H](N)CC2)c1 [compound 21, N-((1r,4r)-4-aminocyclohexyl)-3-ethylbenzamide]	IC50 [1]: 57.5 µM
> 100	Cc1ccc(C(=O)N[C@H]2CC[C@H](N)CC2)cn1 [compound 346, N-((1r,4r)-4-aminocyclohexyl)-6-methylnicotinamide]	
> 100	NCCC(=O)N[C@H]1CC[C@H](NC(=O)c2cccc3c2OC(F)(F)O3)CC1 [compound 440, N-((1r,4r)-4-(3-aminopropanamido)cyclohexyl)-2,2-difluorobenzo[d][1,3]dioxole-4-carboxamide]	
> 100	Cc1cccc(Cn2nc(C(C)(C)C)cc2C(=O)N[C@H]2CC[C@H](N)CC2)c1 [compound 341, N-((1r,4r)-4-aminocyclohexyl)-3-(tert-butyl)-1-(3-methylbenzyl)-1H-pyrazole-5-carboxamide]	
> 100	CC(NC(=O)c1cccc2c1CC(=O)N2)C1CCN(C(=O)[C@H](C)N)CC1 (stereo partly drawn) [compound 399, N-(1-(1-(L-alanyl)piperidin-4-yl)ethyl)-2-oxoindoline-4-carboxamide]	
> 100	N[C@H]1CC[C@H](NC(=O)[C@H]2C[C@H](O)CN2)CC1 [compound 435, (2R,4S)-N-((1r,4r)-4-aminocyclohexyl)-4-hydroxypyrrolidine-2-carboxamide]	
> 100	CC(NC(=O)C1=NNC(=O)CC1)C1CCN(C(=O)[C@H](C)N)CC1 (stereo partly drawn) [compound 311, N-(1-(1-(L-alanyl)piperidin-4-yl)ethyl)-6-oxo-1,4,5,6-tetrahydropyridazine-3-carboxamide]	
> 100	CC(=O)Nc1ccc(C(=O)N[C@H]2CC[C@H](N)CC2)nc1 [compound 444, 5-acetamido-N-((1r,4r)-4-aminocyclohexyl)picolinamide]	
> 100	Cc1cccc2cc(C(=O)NC(C)C3CCN(C(=O)[C@H](C)N)CC3)[nH]c12 (stereo partly drawn) [compound 300, N-(1-(1-(L-alanyl)piperidin-4-yl)ethyl)-7-methyl-1H-indole-2-carboxamide]	
	CCc1cc(C(=O)N[C@H]2CC[C@H](N)CC2)n(C)n1 [compound 37, N-((1r,4r)-4-aminocyclohexyl)-3-ethyl-1-methyl-1H-pyrazole-5-carboxamide]	IC50 [1]: 59.9 µM
	CC(CC(=O)NC(c1ccccc1)C1CCNCC1)C1CC1 (stereo not drawn) [compound 63, 3-cyclopropyl-N-(phenyl(piperidin-4-yl)methyl)butanamide]	IC50 [1]: 131 µM
